# According to US10064843B2, “Bis-amide derivative and use thereof” (University-Industry Cooperation Group of Kyung Hee …, priority 2013, dated 2018):
# Tests used:
# [1] = molecular target: T1, CypA and NS5A or NS5B (Homo sapiens, UniProt P62937); assay: Co-immunoprecipitation and mammalian two-hybrid analysis of CypA with NS5A or NS5B; format: cell-based; conditions: FIG. 13a, 13b
# T1 construct: 1 mg/mL of HCV Con1b replicon protein lysate; endogenous in cells; host or cells: Huh7 cells carrying the HCV Con1b subgenomic replicon
# T1 sequence (P62937 whole entry): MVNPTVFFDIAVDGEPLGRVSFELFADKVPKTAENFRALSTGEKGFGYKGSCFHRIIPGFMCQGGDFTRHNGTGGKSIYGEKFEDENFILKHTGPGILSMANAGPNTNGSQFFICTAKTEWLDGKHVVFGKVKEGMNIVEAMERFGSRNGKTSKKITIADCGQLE
# Protocol: Example 17: Co-Immunoprecipitation Assay
# For co-immunoprecipitation, 4 μg of specific antibody and 1 mg/mL of HCV Con1b replicon protein lysate to a final volume of 500 μL were rotated at 4° C. for 4 hours. Then, 20 μL of the washed protein A/G PLUS agarose (Santa Cruz, Calif., USA) was added thereto and incubated at 4° C. overnight. Subsequently, the sample was washed 3 times with Triton-wash-buffer, resuspended, and denatured in 5×SDS-PAGE buffer at 95° C. for 5 minutes. The resultant was centrifuges at 19,000 g for 1 minute at 4° C. and subjected to western blot analysis.
# Example 18: Mammalian Two-Hybrid System
# The interaction between intracellular CypA-NS5A and CypA-NS5B was confirmed by the two-hybrid screening technology using CheckMate™ mammalian two-hybrid system (Promega, Madison, Wis., USA) according to the manufacturer's instructions. In brief, pACT- and pBIND-based plasmids were co-transfected (TurboFect, FermentasC) to Huh7 cells along with a pG5luc reporter construct, and incubated at 37° C. After 72 hours, the cell lysate was analyzed regarding the luciferase activity.
# [2] = test system: genotype 1b (Con1b) replication cells; assay: microbe, parasite or virus in culture; format: cell-based, hepatitis C virus; conditions: Hepatitis C virus
# Protocol: (§1) The effect of WJCPA-126 was determined in percentage of fluorescent cells in each image using sub-genotype 1b replicated cells. EC50 and CC50 were determined via nonlinear regression analysis using GraphPad Prism (GraphPad Software). The GFP expression level was quantitated and shown in the left panel. The images of GFP at the level of replicated cells were obtained while increasing the concentration of WJCPA-126 and are shown on the right panel.
# [3] = in vitro; format: cell-based, hepatitis C virus; conditions: genotype 1b Con1b; FIG. 11a
# Protocol: as §1
# [4] = test system: murine splenocytes; assay: MTT cytotoxicity in murine splenocytes; format: cell-based, mouse; conditions: up to 10 μM; FIG. 8a
# Protocol: Example 3: Isolation of Splenocytes from Mice and Cell Culture
# Seven to eight week-old female Balb/c mice were purchased from Orient Bio, Inc. (Sungnam, Korea). Experimental animals were allowed to maintain at a non-pathogenic environment and adapted before the experiment. Experimental mice were sacrificed by dislocation of spine, and the spleens collected therefrom were removed into petri dishes filled with RPMI containing 10% FBS, 100 units/mL of penicillin, and 100 μg/mL of streptomycin. The spleens were dispersed through a nylon mesh to prepare a single cell suspension, and RBC was depleted by using RBC lysis buffer (Sigma, St. Louis, Mo.). Splenocytes were washed and cultured in RPMI complete medium.
# Example 9: Analysis of Cytotoxicity
# Cytotoxicity was analyzed in a 96-well plate using 5 mg/mL of MTT (3-(4,5-dimethylthiasol-2-yl)-2,5-diphenyltetrazolium bromide). The optical density of cells was measured at 550 nm using a microplate reader (Bio-Rad, Richmond, Calif., USA). Cell viability rate was expressed in percentage of the absorbance of treated cells relative to the absorbance of untreated cells.
# [5] = test system: HCV replicon cell; assay: Combined treatment: HCV replicon RNA level by qRT-PCR, synergy analysis; format: cell-based, hepatitis C virus; conditions: in combination with telaprevir, IFN-α, or ribavirin vs. each alone; FIG. 16
# Protocol: (§2) Example 19: Real-Time Quantitative Reverse Transcriptase PCR Analysis
# (§3) Real-time quantitative reverse transcriptase PCR (qRT-PCR) was performed using SYBR Green PCR Master Mix (Invitrogen/Applied Biosystem, Carlsbad, Calif., USA) and ABI Prism 7300 Real-time PCR System (Applied Biosystems, Carlsbad, Calif., USA) according to the manufacturer's instructions. Calculations were performed based on […] method using the following equation: R (ratio)=2-[ΔCT (sample)-ΔCT (control group)]. The data were expressed as fold change of the treated group relative to the control group and standardized relative to the glyceraldehyde 3-phosphate dehydrogenase (GAPDH) level.
# Example 20: Synergy Analysis
# In order to confirm whether the combination between NIM811 and IFN-α, ribavirin, or telaprevir is synergistic, additive, or antagonistic, the combination index (CI) was calculated using the CalcuSyn Software (Biosoft). In fact, the combination is additive when CI=1.0, synergistic when CI<1.0, and antagonistic when CI>1.0.
# [6] = test system: IL-8; assay: IL-8 mRNA and IL-8 ELISA in HCV replicon cell; format: cell-based, human; conditions: 2 μM
# Protocol: Example 11: Determination of IL-8 and INF-α Concentrations in Cell Culture Media by ELISA
# Upon incubation, the cell culture media were collected and the IL-8 and IFN-α concentrations were analyzed according to the protocol of eBioscience (San Diego, Calif., USA) by ELISA.
# as §2, §3
# [7] = test system: HCV-Con1b replicon; assay: HCV mouse model (NOD/SCID mice transplanted with Huh7 HCV-Con1b replicon cells); conditions: 50 mg/kg intraperitoneally daily, two weeks
# Protocol: Five to six-week old immunodeficient NOD/SCID mice (Charles River Laboratories, USA) were used. The use of experimental animals and experimental protocol (KHUASP (SE)-11-045) was approved by the Institutional Animal Care and Use Committee of Kyung Hee University (Seoul, Korea). The control Huh7 cells or the Huh7 cells including the HCV-Con1b replicon were injected into mice intrasplenically (1×10^6 cells/200 μL of PBS). Cell transplantation and surgical procedures were performed under anesthesia along with a prophylactic antibiotic. […] Each treatment group consisted of 5 mice. Upon completion of the treatment, the mice were sacrificed and liver tissues were collected from them for analysis.
# Murine liver tissues were dissected and then cryoprotected in 30% sucrose for the preparation of paraffin-embedded samples. Paraffin samples for Hematoxylin and Eosin (H&E) staining were prepared. After removing paraffin, rehydrated samples were incubated with monoclonal antibodies to human hepatocytes (Hep par 1) and HCV NS5A (Santa Cruz, Calif., USA), which were diluted at a ratio of 1:50, at 4° C. overnight. […] The nuclei were stained with DAPI for 5 minutes and analyzed using a confocal microscope.
# HCV RNA was extracted from liver tissue by Trizol method. Mouse liver tissues were mechanically destroyed and lysed in Trizol (Invitrogen, Carlsbad, Calif., USA). The quantitative analysis of HCV RNA was performed using real-time transcription PCR.
smiles,measurement,setting,value
"COc1cc(C(C(=O)NC2CCCCC2)N(C(=O)Cc2c[nH]c3ccccc23)c2ccc(C(C)C)cc2)cc(OC)c1OC (stereo not shown) [WJCPA-126, N-cyclohexyl-2-[(2-1H-indol-3-yl-acetyl)-(4-isopropyl-phenyl)-amino]-2-(3,4,5-trimethoxy-phenyl)-acetamide]",interactions between CypA and NS5A or NS5B,[1],destroys the interactions between CypA and NS5A or NS5B
same,EC50,[2],0.73 ± 0.1 µM
same,CC50,[3],12.4 ± 2.1 µM
same,cytotoxicity in mouse splenocytes,[4],no cytotoxicity
same,levels of HCV-specific RNA and IL-8 in combined treatment,[5],synergistic decrease
same,mRNA level of IL-8,[6]; FIG. 15b,significant reduction of mRNA level of IL-8 in a time-dependent manner
same,IL-8 production (ELISA),[6]; FIG. 15c,significantly reduces the expression of IL-8 production
same,body weight,[7]; FIG. 19a,did not show any noticeable change in body weight
same,HCV RNA level in liver,[7]; FIG. 19b,relatively higher level of inhibition on the HCV RNA level than the CsA treatment
same,HCV NS5A in transplanted mouse liver tissue (immunofluorescence),[7]; FIG. 20,only faintly detected
